# Reference: patent US20110152341A1, “CLEAVAGE OF B-AMYLOID PRECURSOR PROTEIN” (PROBIODRUG AG, priority 2009, published 2011)
# Tested on: human meprin-β (hMPβ) and human APP in HEK293 cells
# Assay: Aβ secreted by HEK293 cells after transient overexpression of human meprin-β and human APP, ELISA
# Type: cell-based
# Details: 20 μM actinonin (1% DMSO), 24 h, HEK293, ELISA (IBL) with antibody 6E10
# Protocol: The sequence of human APP was cloned into the vector pcDNA3.1 (Invitrogen) and various mutations were inserted. The resulting clones were named pcDNA-hAPP (for wildtyp APP), pcDNA-hAPPsw (for mutation K595N, M596L) and pcDNA-hAPP/E3Q (for mutation E599Q). For transient overexpression of human meprin and human APP the cells were cultured in 6-well dishes until 90% confluence, transfected with 2 μg of vector with meprin and 2 μg of one of the described APP-vectors per well using Lipofectamin2000 (Invitrogen) according to manufacturer's manual. Control samples were transfected with pcDNA3.1. After 24 h the solution was replaced by medium free of serum and phenolred. Medium was collected 24 h later and supplemented with a protease inhibitor cocktail (complete, Mini, Roche), centrifuged at 500×g and 10 000×g, subsequently to remove cells and debris. The supernatant was stored at −80 until analysis by ELISA (IBL) and urea western-blot for identification of liberated Aβ species.
# 24 h after co-transfection of HEK293 cells with human APP and meprin (as described for example 4) the medium was replaced by medium free of serum and phenolred supplemented with 20 μM Actinonin (1% DMSO). 24 hours later medium was collected, supplemented with inhibitor cocktail (complete, Mini, Roche), centrifuged at 500×g and 10 000×g, subsequently to remove cells and debris. […]
compound,measurement,value
CCCCC[C@H](CC(=O)NO)C(=O)N[C@H](C(=O)N1CCC[C@H]1CO)C(C)C [Actinonin],Effect on the increase of Aβ secretion after overexpression of hAPP and hMPβ,reduced to almost the basal level
